Data from ChEMBL document CHEMBL4373661, “Set-up and screening of a fragment library targeting the 14-3-3 protein interface” (Medchemcomm, 2019).
Active and inactive are the calls of the source. The calls are words filed in the database; no cut-off is given here.

Columns and labels:
Homo sapiens [1] = organism: Homo sapiens; experiment: Binding affinity to human His6-tagged 14-3-3 protein sigma C17 deletion mutant expressed in Escherichia coli BL21 (DE3) at 500 uM by WaterLOGSY NMR analysis
Homo sapiens [2] = organism: Homo sapiens; experiment: Binding affinity to 15N2H labelled human 14-3-3 protein sigma C17 deletion mutant at dimer interface assessed as chemical shift perturbations in resonances at 2000 uM by 1H-15N TROSY-HSQC 2D NMR analysis
Homo sapiens [3] = organism: Homo sapiens; experiment: Binding affinity to 15N2H labelled human 14-3-3 protein sigma C17 deletion mutant at top of helices alphaH and alphaI assessed as chemical shift perturbations in resonances at 2000 uM by 1H-15N TROSY-HSQC 2D NMR analysis

Row | Activity (Homo sapiens [1]) | Activity (Homo sapiens [2]) | Activity (Homo sapiens [3]) | Compound
1 | Active | Active | – | NC(=O)c1cc(Cl)cc(Cl)c1O
2 | Active | – | Active | Cc1ccc(B(O)O)cc1Cl
3 | Active | – | Active | CC12CC3(C)CC(C)(C1)CC(C(=O)O)(C2)C3
